Results: the supplement of paper PMC10307832

Assays:
Assay in all cases: relative viability (nuclei count vs DMSO), 5 days (fraction); higher = more cells survive
Trametinib + Tozasertib = compound: CC(=O)Nc1cccc(-n2c(=O)n(C3CC3)c(=O)c3c(Nc4ccc(I)cc4F)n(C)c(=O)c(C)c32)c1 [Trametinib] + Cc1cc(Nc2cc(N3CCN(C)CC3)nc(Sc3ccc(NC(=O)C4CC4)cc3)n2)n[nH]1 [Tozasertib] (partner 0.1 µM)
Method in brief: (§1)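 Nuclei were stained with Hoechst during a one-step fixation (final 0.05% Triton X-100, 1% formaldehyde, 1 ug/ml Hoechst) carried out 5 days after dosing, then counted on 4× images. The cells, lung cancer lines in 1536-well plates, had been dosed by pin tool the day after seeding with one drug alone or a fixed anchor-drug dose plus five library-drug doses (not always all listed) in √10 steps. Relative viability is the nuclei count in treated wells divided by that in vehicle wells, and each value is the median of duplicate plates.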

Trametinib + Navitoclax = compound: CC(=O)Nc1cccc(-n2c(=O)n(C3CC3)c(=O)c3c(Nc4ccc(I)cc4F)n(C)c(=O)c(C)c32)c1 [Trametinib] + CC1(C)CCC(c2ccc(Cl)cc2)=C(CN2CCN(c3ccc(C(=O)NS(=O)(=O)c4ccc(N[C@H](CCN5CCOCC5)CSc5ccccc5)c(S(=O)(=O)C(F)(F)F)c4)cc3)CC2)C1 [Navitoclax] (partner 0.5 µM)
Method in brief: as §1

Trametinib + Crizotinib = compound: CC(=O)Nc1cccc(-n2c(=O)n(C3CC3)c(=O)c3c(Nc4ccc(I)cc4F)n(C)c(=O)c(C)c32)c1 [Trametinib] + C[C@@H](Oc1cc(-c2cnn(C3CCNCC3)c2)cnc1N)c1c(Cl)ccc(F)c1Cl [Crizotinib] (partner 1 µM)
Method in brief: as §1

[1] = compound: CN1C=C(C2=CC=CC=C21)/C=C\3/C4=C(C=CC=N4)NC3=O + Nc1nc2[nH]cc(CCc3ccc(C(=O)N[C@@H](CCC(=O)O)C(=O)O)cc3)c2c(=O)[nH]1 [Pemetrexed] (partner 0.2 µM)
Method in brief: as §1

Cell Line | relative viability (Trametinib + Tozasertib; first compound 0.0025 µM) | relative viability (Trametinib + Tozasertib; first compound 0.007906 µM) | relative viability (Trametinib + Tozasertib; first compound 0.025 µM) | relative viability (Trametinib + Tozasertib; first compound 0.07906 µM) | relative viability (Trametinib + Tozasertib; first compound 0.25 µM) | relative viability (Trametinib + Navitoclax; first compound 0.0025 µM) | relative viability (Trametinib + Navitoclax; first compound 0.007906 µM) | relative viability (Trametinib + Navitoclax; first compound 0.07906 µM) | relative viability (Trametinib + Navitoclax; first compound 0.25 µM) | relative viability (Trametinib + Crizotinib; first compound 0.0025 µM) | relative viability (Trametinib + Crizotinib; first compound 0.007906 µM) | relative viability (Trametinib + Crizotinib; first compound 0.07906 µM) | relative viability (Trametinib + Crizotinib; first compound 0.25 µM) | relative viability ([1]; first compound 0.02 µM) | relative viability ([1]; first compound 0.06325 µM) | relative viability ([1]; first compound 0.2 µM) | relative viability ([1]; first compound 0.6325 µM) | relative viability ([1]; first compound 2 µM) | relative viability (Trametinib + Navitoclax; first compound 0.025 µM) | relative viability (Trametinib + Crizotinib; first compound 0.025 µM)
BEN | 0.461 | 0.497 | 0.458 | 0.602 | 0.476 | 0.0591 | 0.054 | 0.0541 | 0.179 | 0.794 | 0.825 | 0.717 | 0.81 | 0.715 | 0.847 | 0.613 | 0.731 | 0.734 |  | 
NCI-H2009 | 0.689 | 0.489 | 0.378 | 0.302 | 0.244 | 0.986 | 0.527 | 0.531 | 0.403 | 1.08 | 0.586 | 0.301 | 0.266 | 1.02 | 0.947 | 1.06 | 1.02 | 1.02 | 0.537 | 0.336
LC-2-ad | 0.487 | 0.406 | 0.406 | 0.393 | 0.306 | 0.35 | 0.306 | 0.285 | 0.173 | 0.47 | 0.463 |  | 0.294 | 0.287 | 0.255 | 0.26 | 0.271 | 0.285 | 0.34 | 0.422
NCI-H1437 | 0.266 | 0.289 | 0.239 | 0.204 | 0.175 | 1.15 | 0.724 | 0.377 | 0.312 | 0.952 | 0.883 | 0.373 | 0.472 | 0.305 | 0.294 | 0.344 | 0.343 | 0.335 | 0.537 | 0.572
NCI-H3122 | 0.367 | 0.322 | 0.183 | 0.217 | 0.142 | 0.937 | 0.867 | 0.548 | 0.435 | 0.238 | 0.228 | 0.199 | 0.209 | 0.185 | 0.196 | 0.203 | 0.194 | 0.267 | 0.508 | 0.221
NCI-H1734 | 0.255 | 0.243 | 0.216 | 0.203 | 0.205 | 0.865 | 0.736 | 0.657 | 0.474 | 0.644 | 0.622 | 0.493 | 0.285 | 0.348 | 0.4 |  | 0.425 | 0.418 |  | 
HCC-15 | 0.345 | 0.234 | 0.161 | 0.148 | 0.15 | 0.505 | 0.336 | 0.247 | 0.189 | 0.658 | 0.53 | 0.259 | 0.187 | 0.228 | 0.211 | 0.223 | 0.217 | 0.211 | 0.243 | 0.415
NCI-H2405 | 0.695 | 0.687 | 0.664 | 0.497 | 0.468 | 0.732 | 0.515 | 0.423 | 0.305 | 0.864 | 0.836 | 0.561 | 0.521 | 1 | 0.955 | 0.828 | 1.09 | 1.01 | 0.48 | 0.685
NCI-H1993 | 0.539 | 0.498 | 0.568 | 0.558 | 0.459 | 0.794 | 0.748 | 0.764 | 0.774 | 0.796 | 0.716 | 0.674 | 0.662 | 0.564 | 0.515 | 0.641 | 0.457 | 0.534 | 0.65 | 0.797
NCI-H1650 | 0.422 | 0.434 | 0.397 | 0.374 | 0.23 | 0.94 | 0.857 | 0.473 | 0.35 | 1.04 | 0.779 | 0.69 | 0.302 | 0.39 | 0.352 | 0.371 | 0.384 | 0.328 | 0.816 | 0.795
NCI-H460 | 0.267 | 0.262 | 0.278 | 0.152 | 0.0343 | 1.08 | 0.981 | 0.277 | 0.0346 | 0.857 | 0.552 | 0.289 | 0.0283 | 0.0583 | 0.0649 | 0.0603 | 0.0702 | 0.0616 | 0.727 | 0.476
NCI-H1651 | 0.666 | 0.555 | 0.541 | 0.526 | 0.498 | 1.02 | 0.943 | 0.844 | 0.778 | 0.898 | 0.804 | 0.743 | 0.729 | 0.651 | 0.579 | 0.574 | 0.648 | 0.644 | 0.933 | 0.828
NCI-H1975 | 0.716 | 0.703 | 0.478 | 0.338 | 0.29 | 0.999 | 1 | 0.466 | 0.395 | 0.965 | 0.937 | 0.499 | 0.381 | 0.265 | 0.28 | 0.3 | 0.283 | 0.264 | 0.713 | 0.757
NCI-H2126 | 0.784 | 0.694 | 0.523 | 0.653 | 0.576 | 0.781 | 0.684 | 0.589 | 0.508 | 1.01 | 0.959 | 0.832 | 0.749 | 0.694 | 0.62 | 0.674 | 0.669 | 0.594 | 0.516 | 0.788
201T | 0.985 | 0.835 | 0.795 | 0.798 | 0.653 | 1.17 | 1.1 | 1.08 | 1.09 | 1.05 | 1.01 | 0.872 | 0.799 | 0.31 | 0.317 | 0.365 | 0.342 | 0.358 | 1.13 | 0.859
